This note sets out measurements from ChEMBL document CHEMBL4808217, “Design, Synthesis, and Characterization of 4-Aminoquinazolines as Potent Inhibitors of the G Protein-Coupled Receptor Kinase 6 (GRK6) for the Treatment of Multiple Myeloma” (J Med Chem, 2021).

What is called IC50 is the concentration at which inhibition is half-maximal.

The target in assay [1] is Death-associated protein kinase 3 (Homo sapiens, UniProt O43293). The assay is described as follows: Inhibition of recombinant human ZIPK (1 to 290 residues) using KKLNRTLSFAEPG substrate incubated for 40 mins in presence of [gamma33P]ATP by scintillation counting based radiometry assay.
Assay [2] deals with T1, Beta-adrenergic receptor kinase 1 (Homo sapiens, UniProt P25098).
T1 sequence (P25098 whole entry): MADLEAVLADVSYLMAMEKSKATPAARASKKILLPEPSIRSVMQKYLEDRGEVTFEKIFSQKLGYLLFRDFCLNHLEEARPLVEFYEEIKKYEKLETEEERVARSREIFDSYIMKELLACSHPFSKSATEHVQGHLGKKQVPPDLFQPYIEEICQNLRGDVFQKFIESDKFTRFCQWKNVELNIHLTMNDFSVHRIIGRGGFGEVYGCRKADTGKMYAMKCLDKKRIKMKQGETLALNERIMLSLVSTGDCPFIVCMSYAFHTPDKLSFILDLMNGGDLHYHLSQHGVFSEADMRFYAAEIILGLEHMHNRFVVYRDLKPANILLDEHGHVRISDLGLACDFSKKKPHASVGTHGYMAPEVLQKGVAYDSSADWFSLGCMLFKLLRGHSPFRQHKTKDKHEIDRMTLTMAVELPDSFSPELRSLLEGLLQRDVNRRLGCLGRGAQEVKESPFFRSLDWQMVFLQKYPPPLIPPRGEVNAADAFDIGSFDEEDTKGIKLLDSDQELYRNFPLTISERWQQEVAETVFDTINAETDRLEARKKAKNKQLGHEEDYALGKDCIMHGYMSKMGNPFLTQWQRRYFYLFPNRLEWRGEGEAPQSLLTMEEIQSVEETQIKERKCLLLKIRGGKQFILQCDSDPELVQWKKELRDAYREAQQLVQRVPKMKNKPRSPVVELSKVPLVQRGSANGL
Kind of assay: Inhibition of human GRK2 using casein as substrate in presence of [gamma33P]ATP by radiometric hotspot kinase assay.

Assay [3] concerns the target T2, Rhodopsin kinase GRK7 (Homo sapiens, UniProt Q8WTQ7).
T2 sequence (Q8WTQ7 whole entry): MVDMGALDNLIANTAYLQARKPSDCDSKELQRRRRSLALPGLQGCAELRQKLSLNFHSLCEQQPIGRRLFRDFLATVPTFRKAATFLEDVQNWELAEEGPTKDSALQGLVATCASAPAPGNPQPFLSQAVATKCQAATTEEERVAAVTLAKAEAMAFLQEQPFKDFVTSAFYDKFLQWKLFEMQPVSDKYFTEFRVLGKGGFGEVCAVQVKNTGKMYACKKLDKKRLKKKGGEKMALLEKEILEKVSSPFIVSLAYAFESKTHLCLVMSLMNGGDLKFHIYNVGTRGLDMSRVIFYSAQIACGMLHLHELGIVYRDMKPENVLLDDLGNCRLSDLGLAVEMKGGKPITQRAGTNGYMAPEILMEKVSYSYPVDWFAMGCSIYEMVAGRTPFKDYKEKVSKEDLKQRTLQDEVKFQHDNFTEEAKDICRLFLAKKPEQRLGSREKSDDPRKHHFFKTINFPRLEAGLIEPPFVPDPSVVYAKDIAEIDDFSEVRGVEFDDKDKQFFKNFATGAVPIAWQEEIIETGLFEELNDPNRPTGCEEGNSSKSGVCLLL
Kind of assay: Inhibition of recombinant full length human GRK7 using casein as substrate incubated for 40 mins in presence of [gamma-33ATP] by scintillation counting based radiometry assay.

Some results are limits rather than exact numbers.

Chain of Death-associated protein kinase 3 (O43293 whole entry, the tested form may be a part): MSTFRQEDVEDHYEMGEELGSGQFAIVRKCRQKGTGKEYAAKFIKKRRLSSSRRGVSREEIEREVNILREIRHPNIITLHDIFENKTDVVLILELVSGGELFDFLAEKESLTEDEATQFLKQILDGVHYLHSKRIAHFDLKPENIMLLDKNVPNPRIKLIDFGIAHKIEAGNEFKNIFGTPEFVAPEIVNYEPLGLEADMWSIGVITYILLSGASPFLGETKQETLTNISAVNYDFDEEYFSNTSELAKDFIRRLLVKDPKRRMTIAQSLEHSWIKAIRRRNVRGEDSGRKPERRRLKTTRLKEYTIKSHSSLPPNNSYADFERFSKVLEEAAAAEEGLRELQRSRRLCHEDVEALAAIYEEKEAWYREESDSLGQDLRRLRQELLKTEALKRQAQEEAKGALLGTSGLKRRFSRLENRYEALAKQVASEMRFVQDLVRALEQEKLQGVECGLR

For the molecule `CCc1cc(Nc2nc(NCc3ccc(Cl)cc3OC)nc3cccc(OC)c23)n[nH]1`, the IC50 was 720 nM in assay [1], over 10000 nM in assay [2] and 6.4 nM in assay [3].
